Like-named read-outs stand apart in the source and are kept apart here.
What was measured:
[1] = set-up: species or system patients; conditions: in vivo
Protocol: This is a randomized phase II study designed to detect the advantage of adding rabeprazole to mCAP as palliative treatment for patients with metastatic GI cancer, as previously described. Eligible patients were randomly assigned 1:1 to capecitabine, 1500 mg/daily, continuously with or without rabeprazole 1.5 mg/kg bid, three days a week. The randomization was computer generated by a statistician not involved in data collection, who was called by phone at the time of assignment. The protocol was not interrupted until progression of disease, unacceptable toxicity or death occurrence. This study was designed with the primary endpoint of 3-months progression-free survival (PFS) rate. […] Safety was evaluated by considering overall incidence and severity of adverse events (AEs) as well as the seriousness and drug-relatedness of each event (CTCAE v.4.03). […] Plasma concentrations of capecitabine and its metabolites, 5′-deoxy-5′-fluorouridine (5′-DFUR) and 5- fluorouracil (5-FU), were evaluated in order to assess the potential interaction between capecitabine and rabeprazole. […] Plasma samples, calibration standard samples and quality-control (QC) samples were analyzed using a high-performance liquid chromatography (HPLC) tandem mass spectrometry (LC/MS-MS) analytical method. […]

tumor pH = test system: tumor pH; set-up: method as in PMID 19876915; conditions: in vivo experiments; tumor pH shifts toward neutrality after treatment; cited from earlier work
[2] = test system: early stage colorectal cancer; set-up: method as in PMID 26803708; conditions: cited from earlier work
[3] = test system: metastatic gastrointestinal (GI) cancer; experiment: Randomized phase II trial: efficacy (3-months PFS, PFS, clinical benefit, OS; RECIST 1.1); format: in vivo, patients
Text: In addition, patients had to be 18 years of age or older, to have adequate bone-marrow, liver, and renal function and to have an Eastern Cooperative Oncology Group (ECOG) performance status ≤2. Meanwhile, the presence of one of the following criteria excluded patients’ participation to the study protocol: GI tumors that can be treated with standard treatments, cardiovascular or CNS disease, previously untreated CNS metastases, pregnant or breast-feeding patients, organ dysfunctions that usually hinder the use of cytotoxic drugs, and/or substance abuse and any other psychological condition that may interfere with the evaluation of study results. All patients were randomized and treated at the Oncology Unit of Sant’Andrea University Hospital, Rome. Every cancer patient is commonly managed at our Institution by a multidisciplinary team, who provides for the starting and the following clinical evaluations.
This is a randomized phase II study designed to detect the advantage of adding rabeprazole to mCAP as palliative treatment for patients with metastatic GI cancer, as previously described. Eligible patients were randomly assigned 1:1 to capecitabine, 1500 mg/daily, continuously with or without rabeprazole 1.5 mg/kg bid, three days a week. The randomization was computer generated by a statistician not involved in data collection, who was called by phone at the time of assignment. The protocol was not interrupted until progression of disease, unacceptable toxicity or death occurrence. This study was designed with the primary endpoint of 3-months progression-free survival (PFS) rate. PFS was defined as the length of time from the first dose of study drug to the date of the first documented disease progression according to the Response Evaluation Criteria in Solid Tumors (RECIST), version 1.1, or death for any reason, with censoring at the date of the last contact for alive patients. Secondary endpoints included the evaluation of clinical benefit (CB), which reflects the proportion of patients with complete response (CR), partial response (PR) and stable disease (SD) and overall survival (OS). The crossover between treatment groups was not allowed before the final analysis of the primary end point. Safety was evaluated by considering overall incidence and severity of adverse events (AEs) as well as the seriousness and drug-relatedness of each event (CTCAE v.4.03). AEs with an onset during treatment, or within 28 days after the last dose of the study drug, were considered as having occurred during treatment. We grouped anemia, neutropenia, and thrombocytopenia in hematological toxicity; diarrhea, nausea, and vomiting in gastrointestinal toxicity. In the two protocol arms, plasma concentrations of capecitabine and its metabolites were determined at 2 h from the assumption of two tablet of capecitabine (1000 mg), corresponding to the tmax of the drug. Plasma concentrations of capecitabine and its metabolites, 5′-deoxy-5′-fluorouridine (5′-DFUR) and 5- fluorouracil (5-FU), were evaluated in order to assess the potential interaction between capecitabine and rabeprazole. Blood samples (7 mL) were collected in vacutainers containing ethylenediaminetetraacetic acid (EDTA) as anticoagulant, then centrifuged and the plasma samples were stored at −20 °C until analysis. […] Plasma samples, calibration standard samples and quality-control (QC) samples were analyzed using a high-performance liquid chromatography (HPLC) tandem mass spectrometry (LC/MS-MS) analytical method. […]

[4] = test system: patients with metastatic GI cancer; experiment: Randomized phase II trial: safety, adverse events (CTCAE v.4.03); conditions: in vivo
Protocol: This is a randomized phase II study designed to detect the advantage of adding rabeprazole to mCAP as palliative treatment for patients with metastatic GI cancer, as previously described. Eligible patients were randomly assigned 1:1 to capecitabine, 1500 mg/daily, continuously with or without rabeprazole 1.5 mg/kg bid, three days a week. The randomization was computer generated by a statistician not involved in data collection, who was called by phone at the time of assignment. The protocol was not interrupted until progression of disease, unacceptable toxicity or death occurrence. This study was designed with the primary endpoint of 3-months progression-free survival (PFS) rate. PFS was defined as the length of time from the first dose of study drug to the date of the first documented disease progression according to the Response Evaluation Criteria in Solid Tumors (RECIST), version 1.1, or death for any reason, with censoring at the date of the last contact for alive patients. Secondary endpoints included the evaluation of clinical benefit (CB), which reflects the proportion of patients with complete response (CR), partial response (PR) and stable disease (SD) and overall survival (OS). The crossover between treatment groups was not allowed before the final analysis of the primary end point. Safety was evaluated by considering overall incidence and severity of adverse events (AEs) as well as the seriousness and drug-relatedness of each event (CTCAE v.4.03). AEs with an onset during treatment, or within 28 days after the last dose of the study drug, were considered as having occurred during treatment. We grouped anemia, neutropenia, and thrombocytopenia in hematological toxicity; diarrhea, nausea, and vomiting in gastrointestinal toxicity. In the two protocol arms, plasma concentrations of capecitabine and its metabolites were determined at 2 h from the assumption of two tablet of capecitabine (1000 mg), corresponding to the tmax of the drug. Plasma concentrations of capecitabine and its metabolites, 5′-deoxy-5′-fluorouridine (5′-DFUR) and 5- fluorouracil (5-FU), were evaluated in order to assess the potential interaction between capecitabine and rabeprazole. Blood samples (7 mL) were collected in vacutainers containing ethylenediaminetetraacetic acid (EDTA) as anticoagulant, then centrifuged and the plasma samples were stored at −20 °C until analysis. Plasma samples were collected at the start of the study, after 4 and 8 weeks of treatment. Plasma samples, calibration standard samples and quality-control (QC) samples were analyzed using a high-performance liquid chromatography (HPLC) tandem mass spectrometry (LC/MS-MS) analytical method. Plasma concentrations were reported in µg/mL (mean values and standard deviation (SD)).
The study was designed to have 90% power to detect a hazard ratio for the 3-months PFS of 0.60 (a 40% reduction in risk) in the mCAP-rabeprazole group as compared with the mCAP group, with a one-sided type I error rate of 0.05. Given the treatment assignment ratio of 1:1, we calculated that 66 patients had to be enrolled in the study, and at least 60 events (progression disease) would have been required for the primary analysis. For PFS and OS, the stratified log-rank test was used independently at the 2-sided, 0.05 level of significance, and Kaplan–Meier estimates performed for the graphic representation of both findings. An exact logistic regression model was used to test for a difference in CB between treatments, with the model adjusted by the same factors used to stratify the primary analysis of PFS. Adverse events and laboratory abnormalities were summarized for all patients who received at least one dose of study drug. The χ^2–test and t-test for unpaired data were applied to compare frequencies and means, respectively. SPSS statistical software, Version 24 (SPSS Inc. Chicago, IL, USA) was used.

Row | Compound | plasma values in the pre-dose analysis [1] | time for tumor pH to return to acidity after treatment discontinuation (tumor pH) | Five-year recurrence-free survival ([2]; adjuvant capecitabine with concurrent PPIs consumption) | Five-year recurrence-free survival ([2]; adjuvant capecitabine without concurrent PPIs consumption) | HR for five-year recurrence-free survival ([2]; with vs. without concurrent PPIs, p = 0.03) | median OS ([3]; Kaplan–Meier) | median PFS ([3]; Kaplan–Meier) | 3-year OS rate ([3]; human, in vivo) | patients who reported a clinical benefit (CB: CR+PR+SD) ([3]; human, in vivo) | patients who experienced a progression of the disease at the 3-months evaluation (primary end-point) ([3]; intention-to-treat, mCAP 1500 mg/daily with or without rabeprazole 1.5 mg/kg bid three days a week) | Gastrointestinal G1, patients ([4]; human) | Gastrointestinal G2, patients ([4]; human) | Hand-foot syndrome G1, patients ([4]; human) | Hand-foot syndrome G2, patients ([4]; human) | Hematological toxicity G1, patients ([4]; human) | Hematological toxicity G2, patients ([4]; human) | Nausea ([4]; human) | Neutropenia ([4]; human) | adverse events of any grade, patients ([4]; human) | severe adverse events [4]
1 | O=c1[nH]cc(F)c(=O)[nH]1 [5-FU, 5-fluorouracil] | below zero |  |  |  |  |  |  |  |  |  |  |  |  |  |  |  |  |  |  | 
2 | COc1ccc2nc([S@@+]([O-])Cc3ncc(C)c(OC)c3C)[nH]c2c1 [esomeprazole] |  | ≤ 48 h |  |  |  |  |  |  |  |  |  |  |  |  |  |  |  |  |  | 
3 | CCCCCOC(=O)Nc1nc(=O)n([C@@H]2O[C@H](C)[C@@H](O)[C@H]2O)cc1F [mCAP, capecitabine] | below zero |  | 74% | 83% | 1.89 | 6.0 (95%CI 4.0–7.9) months | 3.0 months | 12% | 31% | 57% | 14% | 9% | 3% | 11% | 6% | 6% | 1 n. | 0 n. | 29% | no severe adverse event
